These results are taken from patent US20260132165A1, “MODIFIED NUCLEOSIDE ANALOGUE AND USE THEREOF, AND NUCLEOSIDE ANALOGUE-CONTAINING DOUBLE-STRANDED OLIGONUCLEOTIDE AND USE THEREOF” (RIGERNA THERAPEUTICS (BEIJING) CO., LTD., priority 2023, published 2026).

In data set [1] the test system is target gene SOD1. Briefly: Test Example 4: lipid conjugated siRNA sequences with different carbon chain lengths, SOD1 in mouse brain, lateral ventricle administration. It is filed as in vivo, C57BL/6j mice. More on the design: Right hemisphere Mean value of inhibition rate / Left hemisphere Mean value of inhibition rate: unit not given here. The settings on record: lateral ventricle, 150 μg per mouse, D5.

For data set [2], the system named is target gene SOD1. Briefly: Test Example 7: inhibitory activity of lipid conjugated siRNA sequences on SOD1 in mouse adipose and muscle tissues (tail vein injection). It is filed as in vivo, C57BL/6j mice. The settings on record: tail vein injection 5 mg/kg. Here is the method:
RNA extraction: the above tissue samples were taken out from the RNAlater, and smashed for 60 s in Tissuelyser type II full-automatic tissue homogenizer, and total RNAs of various tissue samples were extracted using the full-automatic nucleic acid extraction instrument and the nucleic acid extraction kit from Zhejiang Hanwei Science and Technology Co. Ltd. according to methods described in instructions.
Reverse transcription reaction: 1 μg of the extracted total RNAs of the tissue samples were taken, and configured into 20 μL of reverse transcription system according to a method described in kit instructions by using a reverse transcription kit (Reverse Transcription System, A3500) from Promega Corporation and selecting Oligo (dT)15 reverse transcription primers, and the reverse transcription reaction was completed. After the reaction was ended, 80 μL of RNase-Free water was added into the reverse transcription system to provide cDNA solution for Real-time PCR detection.
Real-time PCR detection: 20 μL of Real-time PCR reaction system per PCR detection well was configured according to a method described in kit instructions using SYBR™ Select Master Mix (Catalog number: 4472908) reagent from ABI company. Each detection system contained 5 μL of cDNA template obtained from the above reverse transcription reaction, 10 μL of SYBR™ Select Master Mix, 0.5 μL of 10 μM upstream primers, 0.5 μL of 10 μM downstream primers, and 4 μL of RNase-Free H2O. The configured reaction system was subjected to Real-time PCR amplification on ABI StepOnePlus PCR instrument by a three-step method, wherein an amplification procedure was pre-denaturation at 95° C. for 10 min, then denaturation at 95° C. for 30 s, annealing at 60° C. for 30 s, and extension at 72° C. for 30 s; and processes of denaturation, annealing, and extension were repeated for 40 cycles. Gene expression differences were calculated by the ΔΔCt method after completion of the procedure.
In the real-time fluorescence quantitative PCR method, relative quantitative calculation of remaining expression level and inhibition rate of gene mRNA of interest in various test groups was performed by the ΔΔCt method, and the calculation method is as follows:
The present test example evaluated, by an evaluation method for inhibitory activity on a target gene in mice, the inhibitory activity of siRNA sequence RZ899090 with the sense strand with the NM073 conjugation at Position 4, siRNA sequence RZ899091 with the sense strand with the NM074 conjugation at Position 4, siRNA sequence RZ899078 with the sense strand with the NM202 conjugation at Position 6 and siRNA reference sequence RZ899093 with the sense strand with the Uhd conjugation at Position 4, and siRNA reference sequence RZ899076 with the sense strand with the NM200 conjugation at Position 4 on the target gene SOD1 of interest in mice. The above conjugation vectors were different in that NM073 was C18 aliphatic chain, NM074 was C20 aliphatic chain, and NM0202 and NM0200 were C22 aliphatic chains.
6-8 Week-old C57BL/6j mice were randomly grouped by body weight, 15 per group, 6 groups in total. Mice in each group were dosed with the above siRNA conjugates by tail vein injection, with an administration dose of 5 mg/kg per mouse, and an administration volume of 150 μL. PBS control group was administered with the same volume of siRNA conjugate-free PBS solution. The day of administration was recorded as D0, and 5 mice in each group were sacrificed on D14, D28 and D49 after administration. Tissues such as paragonadal fat, left hind leg quadriceps muscle, heart, liver, and kidney were respectively taken and stored in the RNAlater. RNA extraction, reverse transcription, and real-time fluorescence quantitative detection were performed on various tissues according to the above method, and gene expression differences were calculated by the above ΔΔCt method.

Strand notation (5' to 3'): a small letter for the sugar, then the base; units joined by * are phosphorothioate-linked, units joined directly phosphodiester-linked; [ ] holds rarer units or linkages, { } end groups; capitals alone tell only the bases. [Uhd] = commercial lipid-conjugated uridine analogue Uhd (C16), from Hongene, reference; {VP} = (thio)vinylphosphonate on the antisense 5' nucleotide, as listed; e = 2'-O-(2-methoxyethyl) (MOE); m = 2'-O-methyl; f = 2'-fluoro

“RZ899093: siRNA reference sequence with the sense strand with the Uhd (C16) conjugation at Position 4; SEQ ID NO: 13 / 23 (sense mU*mU*mU[Uhd]mAmAfUfCfCfUmCmAmCmUmCmUmAmAmA; antisense {VP}-mU*fU*mUmAmGfAmGmUmGmAmGfGmAfUeUfAmAmAmA*mU*mG) [reference compound]”: in the data set on target gene SOD1 [1] (left hemisphere (non-administration side)), the “Left hemisphere Mean value of inhibition rate” value is 70.23. For the same substance, the “Right hemisphere Mean value of inhibition rate” value in the data set on target gene SOD1 [1] (right hemisphere (administration side)) stood at 80.47. The “D 14 % Mean value of inhibition rate” value with target gene SOD1 [2] (mouse adipose tissues (paragonadal fat), D14) was found to be 88.95%; in the data set with target gene SOD1 [2] (mouse heart tissues, D14), 57.83%; in the data set on target gene SOD1 [2] (mouse skeletal muscle tissues (left hind leg quadriceps muscle), D14) it was 68.42%. The “D 28 % Mean value of inhibition rate” value amounted to 81.22% in the data set on target gene SOD1 [2] (mouse adipose tissues (paragonadal fat), D28); 60.42% in the data set with target gene SOD1 [2] (mouse heart tissues, D28); 64.12% with target gene SOD1 [2] (mouse skeletal muscle tissues (left hind leg quadriceps muscle), D28). Further, the “D 49 % Mean value of inhibition rate” value in the data set with target gene SOD1 [2] (mouse adipose tissues (paragonadal fat), D49) is on record as 81.75%; with target gene SOD1 [2] (mouse heart tissues, D49) it was 44.18%; in the data set with target gene SOD1 [2] (mouse skeletal muscle tissues (left hind leg quadriceps muscle), D49), 44.88%. Besides, in the data set on target gene SOD1 [2] (mouse kidney, D14), the “Kidney D 14 % Mean value of inhibition rate” value was determined as 42.87%. Also, the “Kidney D 28 % Mean value of inhibition rate” value in the data set with target gene SOD1 [2] (mouse kidney, D28) is listed as 19.28%. Moreover, in the data set with target gene SOD1 [2] (mouse kidney, D49), the “Kidney D 49 % Mean value of inhibition rate” value is given as 18.90%. For the same substance, in the data set with target gene SOD1 [2] (mouse liver, D14), the “Liver D 14 % Mean value of inhibition rate” value is 48.04%. The “Liver D 28 % Mean value of inhibition rate” value with target gene SOD1 [2] (mouse liver, D28) came to 13.41%. For the same substance, in the data set on target gene SOD1 [2] (mouse liver, D49), the “Liver D 49 % Mean value of inhibition rate” value was 13.02%.
